Values joined by “and” are separate entries in the source; they are usually repeats but may differ in a detail not shown here. Identical values can stand only once. Like-named read-outs stand apart in the source and are kept apart here.
Legend:
C. difficile R20291 [1] = conditions: previously observed / recorded values, ref 76 (vancomycin, fidaxomicin), ref 10 (metronidazole), cited from earlier work
C. difficile R20291 [2] = experiment: Growth inhibition assay (16 h overnight growth, culture density at 630 nm); assay type: cell-based, Clostridioides difficile; conditions: for Concentration of antibiotic necessary to suppress 16-hour growth of C. difficile: >=90% inhibition of overnight growth vs untreated, R20291, anaerobic 37°C, n>=3
Procedure: Two-fold serial dilutions of BHIS media containing the indicated concentrations of antibiotics were prepared in sterile 96 well plates (ThermoFisher Scientific). […] Inoculated plates were incubated anaerobically at 37°C for 16 h and then removed from the chamber. […] All experiments were performed with a minimum of three samples, and the means and standard deviations were reported. To analyze the effects of the antibiotics, samples containing peptides and antibiotics were compared to samples containing only peptides by two-way analysis of variance using GraphPad Prism 6.

[3] = system: C. difficile R20291 vegetative cells; experiment: Enumeration of colony forming units after overnight exposure; assay type: cell-based, Clostridioides difficile; conditions: sub-lethal piscidins (2 μM p1/p1-Cu2+ or 4 μM p3/p3-Cu2+) with sub-lethal antibiotic, 16 h exposure
Procedure: 200 μL samples of BHIS broth containing the indicated concentrations of antibiotics and/or piscidins were inoculated using a 1:10 ratio, in 96 well plates, with exponentially growing C. difficile R20291 cells and incubated for 16 h at 37°C. Samples were spread as duplicates on BHIS agar plates containing 20 μg/mL erythromycin. These plates were incubated anaerobically at 37°C for 48 h before the viable colonies were counted.

C. difficile cells [4] = experiment: Transmission electron microscopy of cell envelope damage and lysis; assay type: cell-based, Clostridioides difficile; conditions: 5 min treatment, TEM
Procedure: Overnight cultures were prepared by inoculating individual colonies into 3 mL BHIS broth and grown for 14–16 h at 37°C in the anaerobic chamber. The overnight cultures were diluted 1:20 into 4 mL BHIS broth and the cultures were grown until they reached exponential phase (OD600 0.4–0.6). […] After treatment, the samples were transferred to 2 mL Eppendorf tubes and centrifuged for 2 minutes to collect the pellets. The pellets were individually suspended in 1 mL of 1X phosphate-buffered saline solution with 4% paraformaldehyde, prepared as described in [75]. The samples were fixed in the anaerobic chamber for 45 min. After fixation, the eppendorf tubes were removed from the chamber and the exteriors were sterilized with SporGon (Thomas Scientific), 10% bleach, and 70% ethanol (VWR). Samples were incubated on 200 mesh formvar-coated copper grids (Electron Microscopy Sciences, Hatfield, PA) that were glow-discharged. Grids were washed with water, incubated with 2% uranyl acetate, washed with water, dried overnight at room temperature, and imaged using a JEM-2100F TEM (JEOL, Akishima, Japan) at a voltage of 200 kV and using a Gatan OneView camera. The percentage of lysed cells in each condition and the standard error of each condition were compared using the Wilson confidence interval.

C. difficile = conditions: in vitro, anaerobic; cited from earlier work
From the text: These antibiotics target different cellular components, providing us with a way to identify whether increased efficacy relies on specific mechanistic aspects of the antibiotics and peptides. We tested this by inoculating C. difficile R20291 into media co ...

[5] = system: C. difficile R20291 spores; experiment: Spore viability assay; assay type: cell-based, Clostridioides difficile; conditions: 16 h, 37°C; for Viable colonies from spores after peptide exposure (spore data): spores in PBS, plated with 0.1% taurocholic acid, individual samples, S6 File; for Viability of dormant C. difficile spores: peptide at or above the concentrations necessary to kill vegetative cells (4/8 μM p1, 8/15 μM p3)
Procedure: To isolate spores, exponentially growing C. difficile R20291 was inoculated 1:10 into 50 mL of BHIS broth and grown anaerobically at 37°C for 16 h. This culture was removed from anaerobic chamber and ethanol was added to a final concentration of 50%. The sample was rocked aerobically for 6 h. The absence of viable vegetative cells was confirmed by spreading volumes up to 1 mL on BHIS plates and incubating anaerobically for 48 h. […] Peptides were tested at final concentrations corresponding to 1X and 2X their previously observed inhibitory concentrations. All the samples were incubated in the chamber at 37°C for 16 hrs. After incubation, 50 μL aliquots of each sample were plated in triplicate on BHIS plates containing 20 μg/mL erythromycin and 0.1% taurocholic acid agar plates to induce germination. An additional 50 μL aliquot was plated on BHIS containing 20 μg/mL erythromycin to ensure that there was no contamination with vegetative cells. The plates were incubated in the chamber at 37°C for 48 h before the viable colonies were counted.

C. difficile cells [6] = experiment: Propidium iodide uptake assay (live cell microscopy); assay type: cell-based, Clostridioides difficile; conditions: 20 μg/mL PI; 4 μM p1/p1Cu, 8 μM p3/p3Cu; apo 30 min, metalated 10 min; anaerobic 37°C; qualitative microscopy
Procedure: Samples containing apo-peptides and metalated peptides were incubated for 30 min and 10 min, respectively. After incubation, cells were centrifuged at 704 rfc for 5 minutes and resuspended in 1.5 mL fresh BHIS broth. Negative controls were incubated with PI for 10 or 30 minutes but contained no piscidin. Positive controls were removed from the anaerobic chamber and incubated aerobically for 1 h at room temperature with propidium iodine and 50% ethanol. Within the anaerobic chamber, samples were injected into rose chambers for microscopic imaging as detailed in [53]. The rose chambers were removed from the anaerobic chamber and the outsides were sterilized with 70% ethanol and 10% bleach. […] Samples were imaged with time-lapse differential interference contrast (DIC) microscopy and propidium iodide was monitored at excitation/emission wavelengths of 535/617 nm.

[7] = with 2 μM p1 and 4 μM p3 combined
[8] = 0.5 μg/mL vancomycin, 4 μM p1-Cu2+, or both

Compound	Concentration of antibiotic necessary to suppress 16-hour growth of C. difficile, no peptide (C. difficile R20291 [1]) [µg/mL]	Concentration of antibiotic necessary to suppress 16-hour growth of C. difficile (C. difficile R20291 [2]; with 2 μM p1) [µg/mL]	Concentration of antibiotic necessary to suppress 16-hour growth of C. difficile (C. difficile R20291 [2]; with 2 μM p1Cu) [µg/mL]	Concentration of antibiotic necessary to suppress 16-hour growth of C. difficile (C. difficile R20291 [2]; [7]) [µg/mL]	Concentration of antibiotic necessary to suppress 16-hour growth of C. difficile (C. difficile R20291 [2]; with 4 μM p3) [µg/mL]	Concentration of antibiotic necessary to suppress 16-hour growth of C. difficile (C. difficile R20291 [2]; with 4 μM p3Cu) [µg/mL]	Number of viable cells after co-treatment [3]	Concentration that inhibits growth and kills exponentially growing C. difficile (C. difficile) [µM]	Viable colonies from spores after peptide exposure (spore data) ([5]; 1X MIC (4 μM p1, 8 μM p3))	Viable colonies from spores after peptide exposure (spore data) ([5]; 2X MIC (8 μM p1, 15 μM p3))	Viability of dormant C. difficile spores [5]	Propidium iodide uptake by live C. difficile cells (C. difficile cells [6])	also measured
O=C(O)c1cn(C2CC2)c2cc(N3CCNCC3)c(F)cc2c1=O [Ciprofloxacin, ciprofloxacin]	> 128												
CCc1c(Cl)c(O)c(Cl)c(O)c1C(=O)O[C@H]1[C@H](O)[C@H](OC)[C@H](OC/C2=C\C=C\C[C@H](O)/C(C)=C/[C@H](CC)[C@@H](O[C@@H]3OC(C)(C)[C@@H](OC(=O)C(C)C)[C@H](O)[C@@H]3O)/C(C)=C/C(C)=C/C[C@@H]([C@@H](C)O)OC2=O)O[C@@H]1C [Fidaxomicin, fidaxomicin]	0.256	0.0500	0.0125	0.00625	0.050	>0.100	further reduced the number of viable cells						Fold improvement of effective antibiotic concentration (C. difficile R20291 [2]; with 2 μM p1-Cu2+ vs no peptide): 20 fold; Concentration of antibiotic necessary to suppress 16-hour growth of C. difficile (C. difficile R20291 [2]; with 2 μM p1, listed as fidaxomicin): 0.05 µg/mL; Fold improvement of effective antibiotic concentration (C. difficile R20291 [2]; with 2 μM p1 and 4 μM p3 combined vs no peptide): 40 fold; Fold improvement of effective antibiotic concentration (C. difficile R20291 [2]; with 2 μM p1 vs no peptide): 5 fold; Concentration of antibiotic necessary to suppress 16-hour growth of C. difficile (C. difficile R20291 [2]; with 4 μM p3Cu, listed as fidaxomicin): > 0.1 µg/mL
Cc1ncc([N+](=O)[O-])n1CCO [Metronidazole, metronidazole]	2.000	0.500	1.0000		0.0625	1.000	further reduced the number of viable cells						Concentration of antibiotic necessary to suppress 16-hour growth of C. difficile (C. difficile R20291 [2]; with 2 μM p1, listed as metronidazole): 0.5 µg/mL; Concentration of antibiotic necessary to suppress 16-hour growth of C. difficile (C. difficile R20291 [2]; with 2 μM p1Cu, listed as metronidazole): 1 µg/mL; Concentration of antibiotic necessary to suppress 16-hour growth of C. difficile (C. difficile R20291 [2]; with 4 μM p3Cu, listed as metronidazole): 1 µg/mL; Concentration of antibiotic necessary to suppress 16-hour growth of C. difficile, no peptide (C. difficile R20291 [1]; listed as metronidazole): 2 µg/mL
CN[C@H](CC(C)C)C(=O)N[C@H]1C(=O)N[C@@H](CC(N)=O)C(=O)N[C@H]2C(=O)N[C@H]3C(=O)N[C@H](C(=O)N[C@H](C(=O)O)c4cc(O)cc(O)c4-c4cc3ccc4O)[C@H](O)c3ccc(c(Cl)c3)Oc3cc2cc(c3O[C@@H]2O[C@H](CO)[C@@H](O)[C@H](O)[C@H]2O[C@H]2C[C@](C)(N)[C@H](O)[C@H](C)O2)Oc2ccc(cc2Cl)[C@H]1O [Vancomycin, vancomycin]	4.000	2.000	0.0625	0.125	0.500	0.250	further reduced the number of viable cells						Concentration of antibiotic necessary to suppress 16-hour growth of C. difficile (C. difficile R20291 [2]; with 2 μM p1, listed as vancomycin): 2 µg/mL; Concentration of antibiotic necessary to suppress 16-hour growth of C. difficile (C. difficile R20291 [2]; with 4 μM p3, listed as vancomycin): 0.5 µg/mL; Concentration of antibiotic necessary to suppress 16-hour growth of C. difficile (C. difficile R20291 [2]; with 4 μM p3Cu, listed as vancomycin): 0.25 µg/mL; Concentration of antibiotic necessary to suppress 16-hour growth of C. difficile, no peptide (C. difficile R20291 [1]; listed as vancomycin): 4 µg/mL; Number of cells with cytoplasm / membrane leakage (C. difficile cells [4]; 0.5 μg/mL vancomycin (22 cells observed) or 4 μM p1-Cu2+ (14 cells observed)): 8; Number of lysed cells (severe to complete cell lysis) (C. difficile cells [4]; 0.5 μg/mL vancomycin (of 22 cells), 4 μM p1-Cu2+ (of 14), both (of 19)): 0; Proportion of lysed cells ("percentage") (C. difficile cells [4]; [8]): 0; Wilson estimate of proportion of lysed cells (C. difficile cells [4]; [8]): 0.07692
Piscidin 1 [p1]								4	10100 and 12400 and 9560 and 8440 and 7400 and 9040	9320 and 11000 and 9200 and 8240 and 10000 and 9120	do not affect the viability	did not visibly increase PI uptake	
Piscidin 3 [p3]								8	8760 and 8840 and 10100 and 7960 and 8080 and 8480	8120 and 7200 and 9000 and 8280 and 10200 and 11400	do not affect the viability	did not visibly increase PI uptake	
